From patent US8354441B2, “Oxazoline derivatives” (Hoffmann-La Roche Inc., priority 2009, dated 2013)

Tests used:
mouse TAAR1 = biological target: T1, mouse TAAR1 (Mus musculus, UniProt Q923Y8); assay: TAAR1 radioligand binding with [3H]-rac-2-(1,2,3,4-tetrahydro-1-naphthyl)-2-imidazoline, membranes of stably transfected HEK293 cells; details: first value of the cell, read-out: Ki (μM) mouse/rat: mouse
T1 construct: expressed in transfected cells; host or cells: HEK293 (ATCC # CRL-1573), stably transfected with pIRESneo2 expression plasmid
Procedure: (§1) For the construction of expression plasmids the coding sequences of human, rat and mouse TAAR 1 were amplified from genomic DNA essentially as described by Lindemann et al.. The Expand High Fidelity PCR System (Roche Diagnostics) was used with 1.5 mM Mg^2+ and purified PCR products were cloned into pCR2.1-TOPO cloning vector (Invitrogen) following the instructions of the manufacturer. PCR products were subcloned into the pIRESneo2 vector (BD Clontech, Palo Alto, Calif.), and expression vectors were sequence verified before introduction in cell lines.
(§2) HEK293 cells (ATCC # CRL-1573) were cultured essentially as described by Lindemann et al. (2005). For the generation of stably transfected cell lines HEK293 cells were transfected with the pIRESneo2 expression plasmids containing the TAAR coding sequences (described above) with Lipofectamine 2000 (Invitrogen) according to the instructions of the manufacturer, and 24 hrs post transfection the culture medium was supplemented with 1 mg/ml G418 (Sigma, Buchs, Switzerland). After a culture period of about 10 d clones were isolated, expanded and tested for responsiveness to trace amines (all compounds purchased from Sigma) with the cAMP Biotrak Enzyme immunoassay (EIA) System (Amersham) following the non-acetylation EIA procedure provided by the manufacturer.
(§3) Cells at confluence were rinsed with ice-cold phosphate buffered saline without Ca^2+ and Mg^2+ containing 10 mM EDTA and pelleted by centrifugation at 1000 rpm for 5 min at 4° C. The pellet was then washed twice with ice-cold phosphate buffered saline and the cell pellet was frozen immediately by immersion in liquid nitrogen and stored until use at −80° C. The cell pellet was then suspended in 20 ml HEPES-NaOH (20 mM), pH 7.4 containing 10 mM EDTA, and homogenized with a Polytron (PT 3000, Kinematica) at 10,000 rpm for 10 s. The homogenate was centrifuged at 48,000×g for 30 min at 4° C. and the pellet resuspended in 20 ml HEPES-NaOH (20 mM), pH 7.4 containing 0.1 mM EDTA (buffer A), and homogenized with a Polytron at 10,000 rpm for 10 s. The homogenate was then centrifuged at 48,000×g for 30 min at 4° C. and the pellet resuspended in 20 ml buffer A, and homogenized with a Polytron at 10,000 rpm for 10 s. Protein concentration was determined by the method of Pierce (Rockford, Ill.). The homogenate was then centrifuged at 48,000×g for 10 min at 4° C., resuspended in HEPES-NaOH (20 mM), pH 7.0 including MgCl2 (10 mM) and […] homogenized with a Polytron at 10,000 rpm for 10 s.
(§4) The binding assay was performed at 4° C. in a final volume of 1 ml, and with an incubation time of 30 min. The radioligand [^3H]-rac-2-(1,2,3,4-tetrahydro-1-naphthyl)-2-imidazoline was used at a concentration equal to the calculated Kd value of 60 nM to give a bound at around 0.1% of the total added radioligand concentration, and a specific binding which represented approximately 70-80% of the total binding. Non-specific binding was defined as the amount of [^3H]-rac-2-(1,2,3,4-tetrahydro-1-naphthyl)-2-imidazoline bound in the presence of the appropriate unlabelled ligand (10 μM). Competing ligands were tested in a wide range of concentrations (10 pM-30 μM). […] Each experiment was performed in duplicate. All incubations were terminated by rapid filtration through UniFilter-96 plates (Packard Instrument Company) and glass filter GF/C, pre-soaked for at least 2 h in polyethylenimine 0.3%, and using a Filtermate 96 Cell Harvester (Packard Instrument Company). The tubes and filters were then washed 3 times with 1 ml aliquots of cold buffer B. Filters were not dried and soaked in Ultima gold (45 μl/well, Packard Instrument Company) and bound radioactivity was counted by a TopCount Microplate Scintillation Counter (Packard Instrument Company).

rat TAAR1 = biological target: T2, rat TAAR1 (Rattus norvegicus, UniProt Q923Y9); assay: as above; details: second value of the cell, read-out: Ki (μM) mouse/rat: rat
T2 construct: expressed in transfected cells; host or cells: HEK293 (ATCC # CRL-1573), stably transfected with pIRESneo2 expression plasmid
Procedure: as §1, §2, §3, §4

T1 sequence (Q923Y8 whole entry): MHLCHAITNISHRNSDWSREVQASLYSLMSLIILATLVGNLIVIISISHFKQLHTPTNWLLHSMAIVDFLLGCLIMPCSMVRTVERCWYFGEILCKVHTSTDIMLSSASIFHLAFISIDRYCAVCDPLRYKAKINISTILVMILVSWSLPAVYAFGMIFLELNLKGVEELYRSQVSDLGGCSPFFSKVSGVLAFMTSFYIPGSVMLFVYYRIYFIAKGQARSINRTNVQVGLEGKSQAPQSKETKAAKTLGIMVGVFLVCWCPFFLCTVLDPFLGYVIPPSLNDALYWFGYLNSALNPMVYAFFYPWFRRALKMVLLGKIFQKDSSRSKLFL
T2 sequence (Q923Y9 whole entry): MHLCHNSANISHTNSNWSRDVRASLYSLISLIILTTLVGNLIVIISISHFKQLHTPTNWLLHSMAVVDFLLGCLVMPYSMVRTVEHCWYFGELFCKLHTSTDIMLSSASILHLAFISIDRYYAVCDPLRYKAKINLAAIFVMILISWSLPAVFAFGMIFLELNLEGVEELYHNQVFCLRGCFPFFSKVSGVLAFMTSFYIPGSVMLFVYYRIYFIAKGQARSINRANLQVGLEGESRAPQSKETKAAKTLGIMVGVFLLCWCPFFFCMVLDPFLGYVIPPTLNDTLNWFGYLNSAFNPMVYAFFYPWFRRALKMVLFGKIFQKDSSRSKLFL

| Structure (SMILES) | Ki (mouse TAAR1) | Ki (rat TAAR1) |
| --- | --- | --- |
| Cc1nc(C(=O)Nc2ccc(CC[C@H]3COC(N)=N3)cc2)c(C)o1 [Example 179, (S)-N-(4-(2-(2-Amino-4,5-dihydrooxazol-4-yl)ethyl)phenyl)-2,5-dimethyloxazole-4-carboxamide] | 0.0059 µM | 0.0023 µM |
| NC1=N[C@@H](CCc2ccc(NC(=O)c3cc(Cl)nc(Cl)c3)cc2)CO1 [Example 175, (S)-N-(4-(2-(2-Amino-4,5-dihydrooxazol-4-yl)ethyl)phenyl)-2,6-dichloroisonicotinamide] | 0.0008 µM | 0.0009 µM |
| COc1ccc(OC(=O)Nc2ccc(CC[C@H]3COC(N)=N3)cc2)cc1 [Example 147, {4-[2-((S)-2-Amino-4,5-dihydro-oxazol-4-yl)-ethyl]-phenyl}-carbamic acid 4-methoxy-phenyl ester] | 0.0006 µM | 0.0003 µM |
| NC1=N[C@@H](CCc2ccc(NS(=O)(=O)c3ccc(Cl)c(Cl)c3)cc2)CO1 [Example 76, N-{4-[2-((S)-2-Amino-4,5-dihydro-oxazol-4-yl)-ethyl]-phenyl}-3,4-dichloro-benzenesulfonamide] | 0.009 µM | 0.0009 µM |
| Cn1cc(Cl)c(C(=O)Nc2ccc(CC[C@H]3COC(N)=N3)cc2)n1 [Example 194, (S)-N-(4-(2-(2-Amino-4,5-dihydrooxazol-4-yl)ethyl)phenyl)-4-chloro-1-methyl-1H-pyrazole-3-carboxamide] | 0.0091 µM | 0.0035 µM |
| NC1=N[C@@H](CCc2ccc(NC(=O)C3CCC3)cc2)CO1 [Example 45, Cyclobutanecarboxylic acid {4-[2-((S)-2-amino-4,5-dihydro-oxazol-4-yl)-ethyl]-phenyl}-amide] | 0.0026 µM | 0.0017 µM |
| NC1=N[C@@H](CCc2ccc(N3CCN(c4ccc(F)cc4)C3=O)cc2)CO1 [Example 56, 1-{4-[2-((S)-2-Amino-4,5-dihydro-oxazol-4-yl)-ethyl]-phenyl}-3-(4-fluoro-phenyl)-imidazolidin-2-one] | 0.0094 µM | 0.0009 µM |
| NC1=N[C@@H](CCc2ccc(NC(=O)c3cnc(N4CCCCC4)nc3)cc2)CO1 [Example 123, (S)-N-(4-(2-(2-Amino-4,5-dihydrooxazol-4-yl)ethyl)phenyl)-2-(piperidin-1-yl)pyrimidine-5-carboxamide] | 0.0007 µM | 0.0017 µM |
| CC[C@@H](C[C@H]1COC(N)=N1)c1ccc(NC(=O)Nc2ccc(C(F)(F)F)cc2)cc1 [Example 13, 1-{4-[(S)-1-((S)-2-Amino-4,5-dihydro-oxazol-4-ylmethyl)-propyl]-phenyl}-3-(4-trifluoromethyl-phenyl)-urea] | 0.0007 µM | 0.0023 µM |
| CCc1cnc(C(=O)Nc2ccc(CC[C@@H]3N=C(N)O[C@H]3C)cc2)cn1 [Example 227, 5-Ethyl-pyrazine-2-carboxylic acid {4-[2-((4S,5S)-2-amino-5-methyl-4,5-dihydro-oxazol-4-yl)-ethyl]-phenyl}-amide] | 0.007 µM | 0.0059 µM |
| NC1=N[C@@H](CCc2ccc(NC(=O)C(F)(F)c3ccc(Cl)c(Cl)c3)cc2)CO1 [Example 125, (S)-N-(4-(2-(2-Amino-4,5-dihydrooxazol-4-yl)ethyl)phenyl)-2-(3,4-dichlorophenyl)-2,2-difluoroacetamide] | 0.0006 µM | 0.0011 µM |
| C[C@@H]1OC(N)=N[C@H]1CCc1ccc(NC(=O)c2ccc(C(F)(F)F)cn2)cc1 [Example 226, 5-Trifluoromethyl-pyridine-2-carboxylic acid {4-[2-((4S,5S)-2-amino-5-methyl-4,5-dihydro-oxazol-4-yl)-ethyl]-phenyl}-amide] | 0.0011 µM | 0.0021 µM |
| NC1=N[C@@H](CCc2ccc(NC(=O)C3CCCCC3)cc2)CO1 [Example 49, Cyclohexanecarboxylic acid {4-[2-((S)-2-amino-4,5-dihydro-oxazol-4-yl)-ethyl]-phenyl}-amide] | 0.0024 µM | 0.0036 µM |
| CC(C)c1cncc(C(=O)Nc2ccc(CC[C@H]3COC(N)=N3)cc2)n1 [Example 230, (S)-N-(4-(2-(2-Amino-4,5-dihydrooxazol-4-yl)ethyl)phenyl)-6-isopropylpyrazine-2-carboxamide] | 0.0009 µM | 0.0016 µM |

Results, then the compound that gave them:

| Ki (mouse TAAR1) | Ki (rat TAAR1) | Structure (SMILES) |
| --- | --- | --- |
| 0.0032 µM | 0.0046 µM | NC1=N[C@@H](CCc2ccc(NC(=O)c3ccc(F)nc3)cc2)CO1 [Example 121, (S)-N-(4-(2-(2-Amino-4,5-dihydrooxazol-4-yl)ethyl)phenyl)-6-fluoronicotinamide] |
| 0.0074 µM | 0.0052 µM | COc1ncc(C(=O)Nc2ccc(CC[C@H]3COC(N)=N3)cc2)cn1 [Example 83, 2-Methoxy-pyrimidine-5-carboxylic acid {4-[2-((S)-2-amino-4,5-dihydro-oxazol-4-yl)-ethyl]-phenyl}-amide] |
| 0.0074 µM | 0.0018 µM | NC1=N[C@@H](CCc2ccc(NC(=O)CCC3CC3)cc2)CO1 [Example 170, (S)-N-(4-(2-(2-Amino-4,5-dihydrooxazol-4-yl)ethyl)phenyl)-3-cyclopropylpropanamide] |
| 0.0008 µM | 0.0014 µM | CCc1nc(OC)cc(C(=O)Nc2ccc(CC[C@H]3COC(N)=N3)cc2)n1 [Example 203, 2-Ethyl-6-methoxy-pyrimidine-4-carboxylic acid {4-[2-((S)-2-amino-4,5-dihydro-oxazol-4-yl)-ethyl]-phenyl}-amide] |
| 0.0004 µM | 0.0004 µM | CCc1ccc(C(=O)Nc2ccc(CC[C@H]3COC(N)=N3)cc2)nc1 [Example 178, (S)-N-(4-(2-(2-Amino-4,5-dihydrooxazol-4-yl)ethyl)phenyl)-5-ethylpicolinamide] |
| 0.0006 µM | 0.001 µM | NC1=N[C@@H](CCc2ccc(NC(=O)c3ccc(OCC(F)(F)F)nc3)cc2)CO1 [Example 113, N-{4-[2-((S)-2-Amino-4,5-dihydro-oxazol-4-yl)-ethyl]-phenyl}-6-(2,2,2-trifluoro-ethoxy)-nicotinamide] |
| 0.0026 µM | 0.0013 µM | COCc1ccc(C(=O)Nc2ccc(CC[C@H]3COC(N)=N3)cc2)cc1 [Example 63, N-{4-[2-((S)-2-Amino-4,5-dihydro-oxazol-4-yl)-ethyl]-phenyl}-4-methoxymethyl-benzamide] |
| 0.0025 µM | 0.0035 µM | NC1=N[C@@H](CCc2ccc(NC(=O)c3ccc(Cl)nc3)cc2)CO1 [Example 31, N-{4-[2-((S)-2-Amino-4,5-dihydro-oxazol-4-yl)-ethyl]-phenyl}-6-chloro-nicotinamide] |
| 0.0043 µM | 0.0019 µM | COc1ccc(CC(=O)Nc2ccc(CC[C@H]3COC(N)=N3)cc2)cc1 [Example 68, N-{4-[2-((S)-2-Amino-4,5-dihydro-oxazol-4-yl)-ethyl]-phenyl}-2-(4-methoxy-phenyl)-acetamide] |
| 0.0005 µM | 0.0002 µM | NC1=N[C@@H](CCc2ccc(NC(=O)c3ccc4ccccc4n3)cc2)CO1 [Example 91, Quinoline-2-carboxylic acid {4-[2-((S)-2-amino-4,5-dihydro-oxazol-4-yl)-ethyl]-phenyl}-amide] |
| 0.0002 µM | 0.0002 µM | NC1=N[C@@H](CCc2ccc(NC(=O)c3cccc(Cl)c3)cc2)CO1 [Example 18, N-{4-[2-((S)-2-Amino-4,5-dihydro-oxazol-4-yl)-ethyl]-phenyl}-3-chloro-benzamide] |
| 0.0008 µM | 0.0019 µM | NC1=N[C@@H](CCc2ccc(NC(=O)c3ccc(C(F)(F)F)cn3)cc2)CO1 [Example 54, 5-Trifluoromethyl-pyridine-2-carboxylic acid {4-[2-((S)-2-amino-4,5-dihydro-oxazol-4-yl)-ethyl]-phenyl}-amide] |
